According to PubChem BioAssay AID179 (DTP/NCI, 2004):
“And” between values parts separate entries of the source, which are not always exact repeats. Equal values may be shown once. The source made the active and inactive calls.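 The calls were made as follows: active = compounds giving half or more protection of infected cells from virus-caused growth loss, again on retest; inactive = the rest.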 Where a SMILES comes first, the peptide text is derived from it. The star is where a group is joined. Cbz = O=C(OCc1ccccc1)*

Tested on: CEM cells HIV-1 protection, formazan growth assay
Experiment: NCI AIDS Antiviral Assay
Details: for IC50: measured here: growth of uninfected CEM cells
Outline: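 Steps: treat uninfected and HIV-1-infected human CEM cells at five drug levels; quantify growth by soluble formazan; retest any compound reaching 50% protection; classify actives from the retest.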

| Structure (SMILES) | EC50 | IC50 | outcome |
| --- | --- | --- | --- |
| NC(=O)C(=O)N/N=C1/c2ccccc2CC1C1(O)C(=O)Nc2c(Cl)cc(Cl)cc21 (configuration not stated) | > 12 µM | > 12 µM |  |
| O=C(Nc1ccc(S(=O)(=O)Nc2ccc(N=Nc3ccc(S(=O)(=O)Nc4nccs4)cc3)cc2)cc1)C(N1CC1)(N1CC1)N1CC1 | > 200 µM | 129 µM |  |
| O=C1OCCN1N1C(=O)CC2(CCCCC2)C1=O | > 200 µM | > 200 µM |  |
| CCc1n[nH]c(=O)n1NC(=O)CCCC(=O)O | > 200 µM | > 200 µM |  |
| Cn1c(N)nc(-c2ccc(Cl)cc2)c1SSc1c(-c2ccc(Cl)cc2)nc(N)n1C | > 200 µM | > 200 µM |  |
| CCOC(=O)NNC(=O)NCc1ccccc1CNC(=O)NNC(=O)OCC | > 200 µM | > 200 µM |  |
| C=C1C(=O)OC2CC(C)C3(O)C=C(C(C)=O)C4(OC3CC12)C(=O)OC1CC(C)C2(/C=C\C(C)=O)OC2CC14 (configuration not stated) | > 479 µM | 81.3 µM |  |
| COC1/C=C\OC2(C)Oc3c(C)c(O)c4c(O)c(c(/C=N/N(Cc5ccccc5)C56CC7CC(CC(C7)C5)C6)c(O)c4c3C2=O)NC(=O)/C(C)=C\C=C\C(C)C(O)C(C)C(O)C(C)C(OC(C)=O)C1C (configuration not stated) | > 200 µM | 6.92 µM |  |
| S=C1NCCNC(=S)SS1 | > 34.7 µM | > 34.7 µM |  |
| C1=CC(=NN=P(c2ccccc2)(c2ccccc2)c2ccccc2)C=C1 |  |  | inactive |
| COc1ccc(C)cc(=O)c1O | > 251 µM | 14.5 µM |  |
| Cc1ccc(C2SCC(=O)N2c2ccc(-n3c(-c4ccccc4)nc4ccccc4c3=O)cc2)cc1 (configuration not stated) | > 200 µM | 10.7 µM |  |
| Nc1ccc2c(c1)NC(=O)[C@@H]1CCCN1C2=O | > 200 µM | > 200 µM |  |
| CC(C)(C)C(=O)Nc1ccccc1C(=O)C12CCC3(CCOCc4ccccc4)C=CCN(C(=O)O1)C32 (configuration not stated) | 15.5 µM | 42.7 µM |  |
| CC(=O)NC(CCCNC(=O)NCCCl)C(=O)NCc1ccccc1 (configuration not stated) | > 676 µM | > 676 µM |  |
| Nc1nc(-c2ccccc2)nc2oc(-c3cccs3)nc12 | > 200 µM | > 200 µM |  |
| CC(=O)OCc1cc(=O)n2c([nH]c3ccccc32)c1C#N | > 20 µM | > 20 µM |  |
| Cc1cc(NCCCCCCCNc2cc(C)nc3cc(N)ccc23)c2ccc(N)cc2n1 | 5.89 µM | 8.71 µM |  |
| O=c1oc2ccccc2c(O)c1/C=N/C(=S)NCc1ccccc1 | > 200 µM | > 200 µM |  |
| CCNC1C2(CCCCC2)NC(=O)C12CCCCC2 (configuration not stated) |  |  | inactive |
| Cc1cn(C2CC(O[Si](C)(C)C(C)(C)C)C(/C=[N+](/[O-])C(C)(C)C)O2)c(=O)[nH]c1=O (configuration not stated) | > 120 µM | 33.9 µM |  |
| CN(C)C1C(=O)C(C(=O)NCNC2C(=O)N3C2SC(C)(C)C3C(=O)O)=C(O)C2(O)C(=O)C3=C(O)c4c(O)cccc4C(C)(O)C3CC12 (configuration not stated) | > 269 µM | 251 µM |  |
| COC(C/C(=C/CO[Si](C(C)C)(C(C)C)C(C)C)C(=O)N(COCC[Si](C)(C)C)c1ccccc1I)OC | > 200 µM | 32.4 µM |  |

| Structure (SMILES) | EC50 | IC50 | outcome |
| --- | --- | --- | --- |
| COc1ccc(SSc2ccc(OC)cc2)cc1 | > 200 µM | > 200 µM |  |
| Cc1c(/C=N/NC(=S)Nc2ccccc2)c(=O)n(-c2ccccc2)n1C | > 200 µM | > 200 µM |  |
| Cc1ccc(S(=O)(=O)NNCNC(=O)c2ccccc2)cc1 |  |  | inactive |
| O=c1[nH][nH]c(=O)n1Cc1ccccc1Cn1c(=O)[nH][nH]c1=O | > 100 µM | > 100 µM |  |
| NNC(=O)c1c/c(=N\NC(=O)CC(=O)Nc2ccccc2Cl)c2ccccc2o1 | > 1.74 µM | > 1.74 µM |  |
| CC[N+](C)(CC)CCNC(=O)C(O)(c1ccccc1)c1ccccc1 | > 200 µM | > 200 µM |  |
| Cc1ccc(N2C(=O)C(Cl)=C(Cl)C2=O)cc1 |  |  | inactive |
| O=C(O)C(Oc1ccc2cc(Br)ccc2c1)C(=O)O |  |  | inactive |
| CC(C)N1CC(=O)N2CSCC2C1=O (configuration not stated) | > 200 µM | > 200 µM |  |
| COc1ccc2nc3ccccc3c(NCCCN(C)C)c2c1[N+](=O)[O-] | > 200 µM | 0.589 µM |  |
| O=C(Cc1ccccc1)N=Nc1c(O)[nH]c2ccccc12 | > 200 µM | > 200 µM |  |
| NP(N)(=O)Nc1ccccc1 | 10.5 µM | > 200 µM |  |
| CC(=O)C1=C(O)CC2CC3c4[nH]c5ccccc5c4CCN3CC2C1 (configuration not stated) | > 204 µM | 102 µM |  |
| COc1ccc(N=NC(=O)NC(CC(C)C)C(=O)NCC(=O)O)cc1 (configuration not stated) | > 200 µM | 3.72 µM |  |
| CC(=O)OCC1OC(Nc2nncs2)C(OC(C)=O)C1OC(C)=O (configuration not stated) | > 692 µM | 562 µM |  |
| Cc1c(C2=NN=C(N=Nc3c(O)cccc3O)/C2=C/c2ccccc2)c(=O)n(-c2ccccc2)n1C |  |  | inactive |
| CC12CCC3C4CCC(=O)C(CCC(=O)O)=C4CCC3(CO1)C2 (configuration not stated) | > 794 µM | > 794 µM |  |
| O=C(CCCCCCCCC(=O)N1C(=O)CC(=O)N(c2ccc(Cl)cc2)C1=S)N1C(=O)CC(=O)N(c2ccc(Cl)cc2)C1=S | > 200 µM | 81.3 µM |  |
| CC(C)C1=CC2=CC(=O)C3C(C)(C)CCCC3(C)C2=C(O)C1=O (configuration not stated) | > 20 µM | 4.07 µM |  |
| CCOC(=O)C(C(=O)OCC)C1(c2ccccc2)OC(=O)c2ccccc21 (configuration not stated) |  |  | inactive |
| O=C1OC2(CCCCC2)c2ccccc21 | > 339 µM | 186 µM |  |
| CCCN(CCC)C(=O)Cc1c2n(c3ccccc13)Cc1ccccc1-2 | > 15.1 µM | 5.89 µM |  |
| CC(C)C(=O)C(C)(C)C(=O)C(C)(C)C(=O)OC(C)(C)C | > 200 µM | > 200 µM |  |

| Structure (SMILES) | EC50 | IC50 | outcome |
| --- | --- | --- | --- |
| NC(N)=Nc1ccccc1SSc1ccccc1N=C(N)N | 8.13 µM | 52.5 µM |  |
| O=c1nc2sc3ccccc3c(=O)n2[nH]1 | > 204 µM | 77.6 µM |  |
| CN1CN(c2ccccc2)C2(CCN(CCc3csc4ccccc34)CC2)C1=O | > 200 µM | 28.8 µM |  |
| COC(=O)C1=CC2C(=O)OC1C1C(=O)NC(=O)C21 (configuration not stated) |  |  | inactive |
| COC(=O)/C(=N\NC(=O)c1ccccc1O)C(C#N)c1ccc(Cl)cc1 (configuration not stated) | > 479 µM | 0.912 µM |  |
| CS(=O)(=O)OCC1OC(n2ccc(NC(=O)c3ccccc3)nc2=O)CC1OS(C)(=O)=O (configuration not stated) | > 200 µM | > 200 µM |  |
| Cc1[nH]c2ccccc2c1C1=CC(=O)N(c2ccccc2)C1=O | > 200 µM | 8.71 µM |  |
| O=[P+](O)c1cc2ccccc2c2ccccc12 |  |  | inactive |
| CCOc1ccc(/C=N\N2C(=O)c3ccccc3C2=O)cc1 | > 123 µM | > 123 µM |  |
| CCOP(=O)(OCC)/C(C#N)=C\c1ccc(OC(C)=O)cc1 | > 562 µM | > 562 µM |  |
| N.N.N.N.O=S([O-])[O-].[Co+3].[N-]=[N+]=[N-] |  |  | inactive |
| Cn1cccc(C(=O)c2ccccc2)c1=O |  |  | inactive |
| COC(=O)c1c2c(cc3c1CCC3)CCC2 | > 200 µM | > 200 µM |  |
| NC(CCSCc1ccccc1)P(=O)(O)O (configuration not stated) | > 200 µM | > 200 µM |  |
| COC(=O)c1cnn2c1ccc1ccccc12 | > 200 µM | 29.5 µM |  |
| Nc1nc(Cl)c(Cl)c(NCC2(O)CCC2)n1 | > 200 µM | 20.9 µM |  |
| Cc1nc(Nc2ccccc2)sc1C(=O)NNc1ccc([N+](=O)[O-])cc1[N+](=O)[O-] | > 63.1 µM | 38 µM |  |
| CC1OC(n2cc(C(F)(F)F)c(=O)[nH]c2=O)C=CC1=O (configuration not stated) | > 447 µM | 3.39 µM |  |
| C=C1C(C(=O)O)C1C(=O)O (configuration not stated) |  |  | inactive |
| COc1ccc(-c2c(C#N)c(N)n(C3OCC(OC(C)=O)C(OC(C)=O)C3OC(C)=O)c(=S)c2C#N)cc1 (configuration not stated) | > 200 µM | 20.9 µM and 29.5 µM |  |
| CN(C)CCNC(=O)c1cc([N+](=O)[O-])cn1C | > 200 µM | > 200 µM |  |
| CCC[CH2][Sn]1([CH2]CCC)[O]C(=O)c2cccnc2[O]1 | > 97.7 µM | 0.0977 µM |  |
| Nc1ccc(N=Nc2ccc(-c3ccc(N=Nc4ccc(N)c5cc(S(=O)(=O)O)ccc45)cc3)cc2)c2ccc(S(=O)(=O)O)cc12 |  |  | active |

| Structure (SMILES) | EC50 | IC50 | outcome |
| --- | --- | --- | --- |
| CC(O)C1(CNc2cc(Cl)nc(N)n2)CCCCC1 (configuration not stated) | > 200 µM | 85.1 µM |  |
| O=C1CCOc2cc(ccc2O)CCN1 | > 200 µM | > 200 µM |  |
| Cc1cc2c(cc1C)NC1=C(N2)OC(c2ccccc2C)C1=O (configuration not stated) | > 81.3 µM | > 81.3 µM |  |
| CCC(CCNC(=O)c1ccccc1)(CCNC(=O)c1ccccc1)[N+](=O)[O-] | > 200 µM | > 200 µM |  |
| CCc1ccccc1NC(=O)C(=O)C(C#N)c1ccccc1Cl (configuration not stated) | > 380 µM | > 380 µM |  |
| OC[C@@H](O)[C@@H](O)c1cnn(-c2ccccc2)n1 | > 200 µM | > 200 µM |  |
| CN1CCN(C(=S)N(C)C(=O)c2cccs2)CC1 | > 891 µM | > 891 µM |  |
| C1COC2SC3=C(SC(=C4SC5=C(SCCS5)S4)S3)SC2O1 (configuration not stated) | > 100 µM | > 100 µM |  |
| NC12CC3CC(C1)CC(Cl)(C3)C2 | > 1120 µM | > 1120 µM |  |
| CCn1c(C)nc2c(N)cccc2c1=O | > 1230 µM | > 1230 µM |  |
| O=C(C=Nc1ccccc1C(=O)[O-])c1cccs1.O=C(C=Nc1ccccc1C(=O)[O-])c1cccs1.[Ni+2] |  |  | inactive |
| COC(=O)C1C(=O)N(C)C(=O)N2CCCC12 (configuration not stated) | > 200 µM | > 200 µM |  |
| C/C=C(/CCC1NCCC2c3ccccc3NC12)[Si](C)(C)C (configuration not stated) |  |  | inactive |
| C=CCC(NCc1ccccc1)[C@H](OCc1ccccc1)[C@@H]1COC(C)(C)O1 (some centres not stated) | > 200 µM | > 200 µM |  |
| O=C1/C(=C/c2ccc(F)cc2)CCc2ccccc21 | > 10.7 µM | > 10.7 µM |  |
| CCOC(=O)C#CCCOC1CCCCO1 (configuration not stated) | > 138 µM | 112 µM |  |
| O=C1NCC2(CCNCC2)N1c1ccccc1 | > 200 µM | > 200 µM |  |
| Clc1ccc(C2c3ccccc3-c3nc4ccccc4n32)cc1 (configuration not stated) | > 200 µM | > 200 µM |  |
| COC(=O)c1cc2ccccc2c(=O)s1 | > 16.2 µM | > 16.2 µM |  |
| CC(C)(C)N=C1C(=O)C2(C)CCC1C2(C)C (configuration not stated) | > 20 µM | > 20 µM |  |
| COC(=O)C(CC(C)C)NC(=O)C(CCCN=C(N)N)NC(=O)OCc1ccccc1 (stereo not drawn) (Cbz-Arg-Leu-OMe; configuration not given here) | > 200 µM | > 200 µM |  |
| COc1cc2c(OC)cc1CSCc1sc(C)c(c1Br)CSC2 | > 11.5 µM | > 11.5 µM |  |
